Experimental data as given in patent US10519183B2, “Amine solvate of sodium-glucose linked transporter inhibitor, and preparation method and application thereof” (Youngene Therapeutics Co., Ltd., priority 2016, dated 2019).

Experiments:
SGLT2 = target: T1, SGLT2 (Homo sapiens, UniProt P31639); conditions: cited from earlier work
T1 sequence (P31639 1-672): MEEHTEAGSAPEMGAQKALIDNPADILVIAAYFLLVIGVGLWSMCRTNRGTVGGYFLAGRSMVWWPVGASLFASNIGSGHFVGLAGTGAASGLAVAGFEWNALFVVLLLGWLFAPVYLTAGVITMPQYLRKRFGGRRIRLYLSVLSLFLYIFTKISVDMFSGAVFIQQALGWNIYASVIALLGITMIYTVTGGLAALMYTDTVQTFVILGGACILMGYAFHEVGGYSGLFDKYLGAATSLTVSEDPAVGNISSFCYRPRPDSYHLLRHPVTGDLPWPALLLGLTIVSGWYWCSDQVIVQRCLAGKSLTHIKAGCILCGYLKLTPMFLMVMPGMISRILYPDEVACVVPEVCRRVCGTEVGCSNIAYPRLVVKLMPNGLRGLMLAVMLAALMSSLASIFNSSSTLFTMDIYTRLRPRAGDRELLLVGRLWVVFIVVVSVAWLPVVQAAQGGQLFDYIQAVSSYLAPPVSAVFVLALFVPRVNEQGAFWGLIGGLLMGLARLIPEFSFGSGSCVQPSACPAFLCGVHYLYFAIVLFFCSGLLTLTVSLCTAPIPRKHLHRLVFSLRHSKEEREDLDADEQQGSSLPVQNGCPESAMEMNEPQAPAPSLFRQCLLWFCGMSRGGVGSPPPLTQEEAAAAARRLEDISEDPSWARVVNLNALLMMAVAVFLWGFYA

SGLT1 = target: T2, SGLT1 (Homo sapiens, UniProt P13866); conditions: cited from earlier work
T2 sequence (P13866 1-664): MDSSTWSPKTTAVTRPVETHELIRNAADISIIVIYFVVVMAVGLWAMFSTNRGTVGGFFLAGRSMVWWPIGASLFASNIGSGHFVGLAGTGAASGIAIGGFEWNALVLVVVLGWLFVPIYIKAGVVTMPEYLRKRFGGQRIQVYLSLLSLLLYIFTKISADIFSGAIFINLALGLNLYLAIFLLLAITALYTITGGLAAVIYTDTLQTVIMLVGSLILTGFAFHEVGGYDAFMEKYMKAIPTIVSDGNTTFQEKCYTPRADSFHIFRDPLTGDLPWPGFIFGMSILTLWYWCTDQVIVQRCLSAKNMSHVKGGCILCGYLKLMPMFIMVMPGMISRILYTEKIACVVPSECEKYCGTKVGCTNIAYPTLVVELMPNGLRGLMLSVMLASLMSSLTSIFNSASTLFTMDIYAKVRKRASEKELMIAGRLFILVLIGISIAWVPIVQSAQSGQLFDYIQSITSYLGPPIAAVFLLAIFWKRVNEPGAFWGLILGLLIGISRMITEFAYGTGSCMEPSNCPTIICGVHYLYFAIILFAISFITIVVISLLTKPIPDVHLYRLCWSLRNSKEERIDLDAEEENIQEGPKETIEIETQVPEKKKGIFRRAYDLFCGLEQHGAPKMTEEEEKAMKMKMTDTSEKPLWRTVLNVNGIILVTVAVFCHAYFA

[1] = stress study on physical stability and chemical stability (80° C., one week); format: physicochemical; conditions: for Chemical purity: HPLC
Procedure: The stress study on the physical stability and chemical stability of the diethylamine solvate of the compound of formula (I) and the amorphous compound of formula (I) were carried out. The diethylamine solvate of the compound of formula (I) obtained in Example 3 and the amorphous compound of formula (I) were placed in glass vials respectively in duplicate, about 10 mg each sample. These samples for stability test were placed in an incubator at 80° C. for one week. After being placed for one week, one sample was used for the chemical purity analysis by HPLC method. The other sample was used for the crystal characterization by XRPD.

degradation at high temperature ([1]; 80° C., stress stability test): changed and degraded immediately
Chemical purity ([1]; After being placed for one week at 80° C.): 90.2%
Chemical purity ([1]; Initial state of the samples): 95.1%
SMILES: CCc1ccc([C@]23OC[C@](CO)(O2)[C@@H](O)[C@H](O)[C@H]3O)cc1Cc1ccc2c(c1)OCCO2 [compound of formula (I), (1S,2S,3S,4R,5S)-5-(3-((2,3-dihydrobenzo[b][1,4]dioxin-6-yl)methyl)-4-ethylphenyl)-1-(hydroxymethyl)-6,8-dioxabicyclo[3.2.1]octane-2,3,4-triol]
inhibitory effect on SGLT2 (SGLT2): very significant inhibitory effect
inhibitory effect on SGLT1 (SGLT1): significant inhibitory effect
